Patent publication US10039845B2, “Labeled inhibitors of prostate specific membrane antigen (PSMA) biological evaluation, and use of imaging agents” (THE JOHNS HOPKINS UNIVERSITY, priority 2007, dated 2018)
One block for each compound: values may come before it.

Molecular target: T1, PSMA (Homo sapiens, UniProt Q04609)
T1 construct: LNCaP cell extracts were prepared by sonication in NAALADase buffer; endogenous in cells; host or cells: LNCaP cell extract (sonicated in 50 mM Tris pH 7.4, 0.5% Triton X-100)
T1 sequence (Q04609 whole entry): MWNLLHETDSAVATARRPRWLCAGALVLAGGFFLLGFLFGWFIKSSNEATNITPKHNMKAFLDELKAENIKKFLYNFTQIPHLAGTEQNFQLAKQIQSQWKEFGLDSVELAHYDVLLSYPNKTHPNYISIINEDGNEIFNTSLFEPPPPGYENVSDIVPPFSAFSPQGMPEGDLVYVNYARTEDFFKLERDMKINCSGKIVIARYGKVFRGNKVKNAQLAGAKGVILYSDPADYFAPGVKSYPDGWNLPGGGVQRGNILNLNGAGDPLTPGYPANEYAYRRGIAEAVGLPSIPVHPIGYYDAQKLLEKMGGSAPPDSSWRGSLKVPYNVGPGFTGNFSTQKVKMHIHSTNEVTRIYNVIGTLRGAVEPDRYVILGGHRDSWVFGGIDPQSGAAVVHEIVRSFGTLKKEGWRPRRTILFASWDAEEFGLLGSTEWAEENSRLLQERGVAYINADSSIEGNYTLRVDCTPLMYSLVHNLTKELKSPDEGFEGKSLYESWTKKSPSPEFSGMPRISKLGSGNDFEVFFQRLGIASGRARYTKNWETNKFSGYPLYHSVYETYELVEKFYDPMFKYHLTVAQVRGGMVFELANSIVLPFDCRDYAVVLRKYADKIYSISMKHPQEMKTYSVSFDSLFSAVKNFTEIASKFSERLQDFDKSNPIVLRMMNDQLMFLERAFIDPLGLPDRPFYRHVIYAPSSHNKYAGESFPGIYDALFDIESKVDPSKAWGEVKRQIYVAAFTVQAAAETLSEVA
Assay: NAALADase assay (NAAG hydrolysis, LNCaP cell extracts)
Type: biochemical
Conditions: for Ki: LNCaP cell extracts, Cheng-Prusoff conversion, read-out: Ki (PSMA inhibitory activity)
Description: The relative binding affinities of L1-L7 and ReL1-ReL7, were determined using the N-acetylated-α-linked acidic dipeptidase (NAALADase) assay as previously described.
NAAG hydrolysis was performed essentially as described previously (Robinson, M. B.; et al. J Biol Chem 1987, 262, 14498-14506; Lupold, S. E.; et al. Cancer Res 2002, 62, 4029-4033.). In short, LNCaP cell extracts were prepared by sonication in NAALADase buffer [50 mM Tris (pH 7.4) and 0.5% Triton X-100]. Cell lysates were incubated with or without inhibitor at 37° C. for 10 minutes. Following the incubation the radiolabeled substrate N-acetyl-L-aspartyl-L-(3,4-^3H)glutamate (NEN Life Science Products, Boston, Mass.) was added to a final concentration of 30 nM at 37° C. for 10-15 min. The reaction was stopped by the addition of an equal volume of ice-cold 100 mM sodium phosphate and 2 mM EDTA. Products were partitioned by AG 1-X8 formate resin (Bio-Rad Laboratories) anion exchange chromatography, eluted with 1 M sodium formate, and quantified by liquid scintillation counting. […] Assays were performed in triplicate with the entire inhibition study being repeated at least once to confirm affinity and mode of inhibition. Data were collected during linear phase of hydrolysis (i.e., <20% cleavage of total substrate). Enzyme inhibitory constants (Ki values) were generated using the Cheng-Prusoff conversion (Cheng, Y.; Prusoff, W. H. Biochem Pharmcol 1973, 22, 3099-3108).

Compound: O=C(O)CCC(NC(=O)NC(CCCCNC(=O)CCCCCCC(=O)NCCCCC(C(=O)O)N(Cc1ccccn1)Cc1ccccn1)C(=O)O)C(=O)O (centres unmarked) [Compound L3, 2-[3-(5-{7-[5-(Bis-pyridin-2-ylmethyl-amino)-5-carboxy-pentylcarbamoyl]-heptanoylamino}-1-carboxy-pentyl)-ureido]-pentanedioic acid]
Ki: 1.08 nM

Ki: 2.54 nM
Compound: O=C(O)CCC(NC(=O)NC(CCCCNC(=O)CCCCCCC(=O)NCCCCCCN(CC(=O)O)Cc1ccccn1)C(=O)O)C(=O)O (centres unmarked) [Compound L4, 2-[3-(1-Carboxy-5-{7-[6-(carboxymethyl-pyridin-2-ylmethyl-amino)-hexylcarbamoyl]-heptanoylamino}-pentyl)-ureido]-pentanedioic acid]

Compound: O=C(O)CCC(NC(=O)NC(CCCCNC(=O)CCCCCCCN(Cc1ccccn1)Cc1ccccn1)C(=O)O)C(=O)O (centres unmarked) [Compound L5, 2-(3-{5-[8-(Bis-pyridin-2-ylmethyl-amino)-octanoylamino]-1-carboxy-pentyl}-ureido)-pentanedioic acid]
Ki: 1.86 nM

Compound: O=C(O)CCC(NC(=O)NC(CCCCN(Cc1ccccn1)Cc1ccccn1)C(=O)O)C(=O)O (centres unmarked) [Compound L6, 2-{3-[5-(Bis-pyridin-2-ylmethyl-amino)-1-carboxy-pentyl]-ureido}-pentanedioic acid]
Ki: 7.53 nM

Compound: O=C(O)CCC(NC(=O)NC(CCCCNC(=O)CCCCCCC(=O)NCCCCCCN(Cc1ccccn1)Cc1ccccn1)C(=O)O)C(=O)O (centres unmarked) [Compound L7, 2-[3-(5-{7-[6-(Bis-pyridin-2-ylmethyl-amino)-hexylcarbamoyl]-heptanoylamino}-1-carboxy-pentyl)-ureido]-pentanedioic acid]
Ki: 0.45 nM

IC50: 0.8 nM
Compound: O=C(O)CCC(NC(=O)NC(CCCCNC(=O)CCCCCCC(=O)NC(CCCCNC(=O)CN1CCN(CC(=O)O)CCN(CC(=O)O)CCN(CC(=O)O)CC1)C(=O)O)C(=O)O)C(=O)O (centres unmarked) [DOTA-L1, 2-{3-[1-Carboxy-5-(7-{1-carboxy-5-[2-(4,7,10-tris-carboxymethyl-1,4,7,10tetraaza-cyclododec-1-yl)-acetylamino]-pentylcarbamoyl}-heptanoylamino)-pentyl]-ureido}-pentanedioic acid]

Compound: O=C(O)CCC(NC(=O)NC(CCCCNC(=O)CCCCCCC(=O)NCCCCC(C(=O)O)N(Cc1ccccn1)Cc1ccccn1)C(=O)O)C(=O)O.[Br-].[C-]#[O+].[C-]#[O+].[C-]#[O+].[Re+] (stereo not drawn) [ReL3, Tricarbonyl(2-[3-(5-{7-[5-(bis-pyridin-2-ylmethyl-amino)-5-carboxy-pentylcarbamoyl]-heptanoylamino}-1-carboxy-pentyl)-ureido]-pentanedioic acid)rehenium bromide]
Ki: 10.3 nM

Compound: O=C(O)CCC(NC(=O)NC(CCCCNC(=O)CCCCCCC(=O)NCCCCCCN(CC(=O)[O][Re])Cc1ccccn1)C(=O)O)C(=O)O.[C-]#[O+].[C-]#[O+].[C-]#[O+] (stereo not drawn) [ReL4, Tricarbonyl(2-[3-(1-carboxy-5-{7-[6-(carboxymethyl-pyridin-2-ylmethyl-amino)-hexylcarbamoyl]-heptanoylamino}-pentyl)-ureido]-pentanedioic acid) rhenium]
Ki: 0.17 nM
fold higher PSMA inhibitory potency than ReL7 (relative to ReL7): about 12 fold

Compound: O=C(O)CCC(NC(=O)NC(CCCCNC(=O)CCCCCCCN(Cc1ccccn1)Cc1ccccn1)C(=O)O)C(=O)O.[Br-].[C-]#[O+].[C-]#[O+].[C-]#[O+].[Re+] (stereo not drawn) [ReL5, Tricarbonyl(2-(3-{5-[8-(bis-pyridin-2-ylmethyl-amino)-octanoylamino]-1-carboxy-pentyl}-ureido)-pentanedioic acid)rhenium bromide]
Ki: 0.91 nM

Compound: O=C(O)CCC(NC(=O)NC(CCCCN(Cc1ccccn1)Cc1ccccn1)C(=O)O)C(=O)O.[Br-].[C-]#[O+].[C-]#[O+].[C-]#[O+].[Re+] (stereo not drawn) [ReL6, Tricarbonyl(2-{3-[5-(bis-pyridin-2-ylmethyl-amino)-1-carboxy-pentyl]-ureido}-pentanedioic acid)rhenium bromide]
Ki: 200 nM
